Source: patent US8202872B2, “Pyrazole derivatives as sigma receptor inhibitors” (Laboratorios del Dr. Esteve, S.A., priority 2006, dated 2012)
Structures can show the parent of a compound that is named as a salt.

Key:
σ1-receptor = molecular target: T1, σ1-receptor (Cavia porcellus, UniProt Q60492); assay: Sigma-1 receptor binding assay, [3H](+)-pentazocine, brain membranes; details: guinea pig brain membranes; for Ki: Sigma-1 receptor, [3H](+)-pentazocine; for % Binding σ1 10^−7M: compound at 10^−7 M; for % Binding σ1 10^−7M / % Binding σ1 10^−8M: [3H](+)-pentazocine 0.5 nM; for % Binding σ1 10^−8M: compound at 10^−8 M
T1 construct: guinea pig brains were homogenized; from tissue; host or cells: guinea pig brain membranes
T1 sequence (Q60492 whole entry): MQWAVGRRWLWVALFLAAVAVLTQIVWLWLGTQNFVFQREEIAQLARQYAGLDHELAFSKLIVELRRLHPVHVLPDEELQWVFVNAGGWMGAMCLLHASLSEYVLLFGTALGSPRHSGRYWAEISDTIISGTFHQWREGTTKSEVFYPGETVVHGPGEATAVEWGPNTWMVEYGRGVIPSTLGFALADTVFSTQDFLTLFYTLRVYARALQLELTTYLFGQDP
Method: Brain membrane preparation and binding assays for the σ1-receptor were performed as described (DeHaven-Hudkins et al., 1992) with some modifications. In brief, guinea pig brains were homogenized in 10 vols. (w/v) of Tris-HCl 50 mM 0.32 M sucrose, pH 7.4, with a Kinematica Polytron PT 3000 at 15000 r.p.m. for 30 s. The homogenate was centrifuged at 1000 g for 10 min at 4° C. and the supernatants collected and centrifuged again at 48000 g for 15 min at 4° C. The pellet was resuspended in 10 volumes of Tris-HCl buffer (50 mM, pH 7.4), incubated at 37° C. for 30 min, and centrifuged at 48000 g for 20 min at 4° C. Following this, the pellet was resuspended in fresh Tris-HCl buffer (50 mM, pH 7.4) and stored on ice until use.
Each assay tube contained 10 μL of [^3H](+)-pentazocine (final concentration of 0.5 nM), 900 μL of the tissue suspension to a final assay volume of 1 mL and a final tissue concentration of approximately 30 mg tissue net weight/mL. Non-specific binding was defined by addition of a final concentration of 1 μM haloperidol. All tubes were incubated at 37° C. for 150 min before termination of the reaction by rapid filtration over Schleicher & Schuell GF 3362 glass fibre filters [previously soaked in a solution of 0.5% polyethylenimine for at least 1 h]. Filters were then washed with four times with 4 mL of cold Tris-HCl buffer (50 mM, pH 7.4). Following addition of scintillation cocktail, the samples were allowed to equilibrate overnight. The amount of bound radioactivity was determined by liquid scintillation spectrometry using a Wallac Winspectral 1414 liquid scintillation counter. Protein concentrations were determined by the method of Lowry et al. (1951).

[1] = tested on: capsaicin-induced allodynia; assay: Von Frey filaments in a model of capsaicin-induced allodynia; type: in vivo; design: dose or concentration left out as unconfirmed; details: mice; capsaicin injected into paw; mechanical stimulus (von Frey)
Method: In-Vivo-Experiments Using Von Frey Filaments in a Model of Capsaicine—Induced Allodynia:
This model is described in detail in the experimental part of WO 2006/010587 A1, examples 1 and 2, the description being included here by reference. Capsaicin is thereby injected into experimental animals to produce acute pain followed by allodynia.
Briefly after habituation mice were first treated with the test-compound (or not in controls). Then capsaicin (1% DMSO) is injected into their paw resulting in developing pain in the effected paw. The effected paw is then treated with a mechanical stimulus and the latency time before the paw is withdrawn is measured.

melting point [°C] | Ki (σ1-receptor) [nM] | SMILES | other results
206 to 210 | 4.2 | CC(=O)N1CCN(CCOc2ccn(-c3ccc(Cl)c(Cl)c3)n2)CC1.O=C(O)C(=O)O [Example 6, 1-{4-[2-(1-(3,4-Dichlo-rophenyl)-1H-pyrazol-3-yloxy)ethyl]pipera-zin-1-yl}ethanone oxalate] | analgesia [1]: 77%
147 to 150 | – | CC(=O)N1CCN(CCCCOc2cc(C)n(-c3ccc(Cl)c(Cl)c3)n2)CC1 [Example 13, 1-(4-{4-[1-(3,4-Dichloro-phenyl)-5-methyl-1H-pyrazol-3-yloxy]-butyl}-piperazin-1-yl)-ethanone] | –
186 to 188 | – | CC(=O)N1CCN(CCCCOc2nn(-c3ccc(Cl)c(Cl)c3)c(C)c2C)CC1.O=C(O)C(=O)O [Example 10, 1-(4-(4-(1-(3,4-Dichlo-rophenyl)-4,5-dimethyl-1H-pyrazol-3-yloxy)butyl)piperazin-1-yl)ethanone oxalate] | –

Continued, compound first:

SMILES | melting point [°C] | Ki (σ1-receptor) [nM] | other results
CC(=O)C1CCN(CCOc2ccn(-c3ccc(Cl)c(Cl)c3)n2)CC1.O=C(O)C(=O)O [Example 5, 1-{1-[2-(1-(3,4-Dichlorophenyl)-1H-pyrazol-3-yloxy)ethyl]piperidin-4-yl}ethanone oxalate] | 98 to 100 | 1.3 ± 0.4 | –
CC(=O)C1CCN(CCOc2ccn(-c3ccc(Cl)cc3Cl)n2)CC1 [Example 7, 1-(1-[2-{1-(2.4-Dichlo-rophenyl)-1H-pyrazol-3-yloxy}ethyl]piperi-din-4-yl)ethanone oxalate] | – | 1.5 | –
CC(=O)N1CCN(CCOc2nn(-c3ccc(Cl)c(Cl)c3)c(C)c2C)CC1.O=C(O)C(=O)O (hydrate or solvate) [Example 12, 1-(4-(2-(1-(3,4-Dichlo-rophenyl)-4,5-dimethyl-1H-pyrazol-3-yloxy)ethyl)piperazin-1-yl)ethanone oxalate] | 180 to 184 | – | –
CC(=O)N1CCN(CCOc2cc(C)n(-c3ccc(Cl)c(Cl)c3)n2)CC1 [Example 4, 1-(4-(2-(1-(3,4-dichlorophenyl)-5-methyl-1H-pyrazol-3-yloxy)ethyl)piperazin-1-yl)ethanone] | – | – | % Binding σ1 10^−7M (σ1-receptor): 99.4%; % Binding σ1 10^−8M (σ1-receptor): 82.5%
CCOC(=O)N1CCN(CCOc2cc(C)n(-c3ccc(Cl)c(Cl)c3)n2)CC1 [Example 3, Ethyl 4-{2-[1-(3,4-dichlorophenyl)-5-methyl-1H-pyrazol-3-yloxy]ethyl}piperazine carboxylate] | – | – | % Binding σ1 10^−7M (σ1-receptor): 99.5%; % Binding σ1 10^−8M (σ1-receptor): 58.4%
Cc1cc(OCCN2CCC(n3cnc4cccnc43)CC2)nn1-c1ccc(Cl)c(Cl)c1 [Example 1, 3-{1-[2-(1-(3,4-Dichlorophenyl)-5-methyl-1H-pyrazol-3-yloxy)ethyl]piperidin-4-yl}-3H-imidazo[4,5-b]pyridine] | 104 to 107 | – | % Binding σ1 10^−7M (σ1-receptor): 94.4%; % Binding σ1 10^−8M (σ1-receptor): 49.4%
CC(=O)C1CCN(CCOc2ccn(-c3ccc(Cl)cc3)n2)CC1.O=C(O)C(=O)O [Example 8, 1-(1-(2-(1-(4-Chloro-phenyl)-1H-pyrazol-3-yloxy)ethyl)piperidin-4-yl)ethanone oxalate] | 150 to 153 | 1.3 | –
CC(=O)N1CCN(CCOc2ccn(-c3ccc(Cl)cc3Cl)n2)CC1.O=C(O)C(=O)O [Example 11, 1-(4-(2-(1-(2,4-Dichlo-rophenyl)-1H-pyrazol-3-yloxy)ethyl)piperazin-1-yl)ethanone oxalate] | 156 to 158 | – | –
CC(=O)C1CCN(CCOc2ccn(-c3ccc(Cl)cc3Cl)n2)CC1.O=C(O)C(=O)O (hydrate or solvate) [Example 7, 1-(1-[2-{1-(2.4-Dichlo-rophenyl)-1H-pyrazol-3-yloxy}ethyl]piperi-din-4-yl)ethanone oxalate] | 137 to 140 | – | –
Cc1cc(OCCN2CCC(N)C2)nn1-c1ccc(Cl)c(Cl)c1 (stereo not drawn) [Example 2, 1-{2-[1-(3,4-Dichlorophenyl)-5-methyl-1H-pyrazol-3-yloxy]ethyl}pyrrolidin-3-amine] | – | – | % Binding σ1 10^−7M (σ1-receptor): 90.7%; % Binding σ1 10^−8M (σ1-receptor): 53.2%
CC(=O)C1CCN(CCOc2cc(C)n(-c3ccc(Cl)c(Cl)c3)n2)CC1.O=C(O)C(=O)O [Example 9, 1-(1-(2-(1-(3,4-Dichlo-rophenyl)-5-methyl-1H-pyrazol-3-yloxy)ethyl)piperidin-4-yl)ethanone oxalate] | 158 to 165 | 8.3 | –
